The values below come from patent publication US4510158A, “2-Phenylindole derivatives, their use as complement inhibitors” (Sterling Drug Inc., priority 1984, dated 1985).

Experiment [1] concerns human complement (C1-C9), classical complement pathway. As to the kind of experiment: Hemolytic molecular titrations of classical complement activity (lysis of sensitized sheep erythrocytes by normal human serum). The class given is biochemical. The settings on record: concentration effecting 50% suppression of lysis (Z/Zo=0.5), 37° C., 60 min, read-out: Classical Complement Pathway Inhibition IC50. The method, then:
(§1) The compounds were evaluated in vitro for their inhibition of human complement (C1-C9) using hemolytic molecular titrations, and the reverse passive Arthus reaction (RPAR) in guinea pigs was chosen as a complement mediated model of acute inflammation to be used to identify compounds with in vivo complement inhibitory activity.
Hemolytic molecular titrations of classical complement activity were performed according to Rapp and Borsos [Molecular Basis of Complement Action, Appleton-Century-Crofts, New York, NY, 1970] and complement inhibition assessed according to Hong et al. (J. Immunol. 1979, Vol. 122, 2418). Operationally, the test compound was maintained in the presence of complement during the lytic reaction of sensitized erythrocytes. Equal volumes (0.2 ml) of normal human serum (NHS), diluted in GVB^++ [Mayer, M. M. in Kabat and Mayer's Experimental Immunochemistry, 2nd Ed.; Charles C. Thomas, Springfield, Ill., 1961, p. 133] to effect lysis of Z=1, and test compound at various concentrations were mixed at 0° C. […] EA (0.2 ml of 1.5×10^8 cells/ml) and 1.8 ml of GVB^++ were added to the reaction mixture followed by incubating at 37° C. for 60 min. The extent of lysis was determined spectrophotometrically at 412 nm. The ratio of treated to untreated (Z/Zo) reaction mixtures was determined as a function of test compound concentration.

Experiment [2] concerns reverse passive Arthus reaction (RPAR). As to the kind of experiment: Reverse Passive Arthus Reaction (RPAR) in guinea pigs, complement mediated model of acute inflammation. The experiment is classed as in vivo, guinea pig. The settings on record: 80 mg/kg iv, 20 min before elicitation; p = 0.001. The method, then: as §1

What is called IC50 is the concentration that gives 50% inhibition. `O=C(O)c1ccc(-c2c(-c3ccccc3)[nH]c3ccccc23)cc1` [Example 15, 4-(2-Phenyl-1H-indol-3-yl)benzoic acid]: in experiment [1], the IC50 was found to be 105 ± 4 µM.
Still for that read-out and setting: as for “Gold sodium thiomalate [reference compound]”, the figure is 1070 ± 90 µM.
As to `O=C(O)C1CC=C(c2c(-c3ccccc3)[nH]c3ccccc23)CC1` (stereo not shown) [Example 1, 4-(2-Phenyl-1H-indol-3-yl)-3-cyclohexene-1-carboxylic acid], the 50% inhibitory concentration (IC50) in experiment [1] is 135 ± 2 µM. In experiment [2], the “RPAR % Inhib.” value was 64 ± 7%.
